Measured values: patent US8614201B2 (Janssen Pharmaceutica NV, priority 2009, dated 2013)

Target: Human TRPA1 (Homo sapiens, UniProt O75762)
Assay: Assay 1: In vitro cellular testing of TRPA1 modulation (CHO-TREx, Fluo-3 calcium fluorescence, AITC agonist)
Format: cell-based
Design: expressed in transfected cells; host or cells: CHO-TREx cells (Invitrogen), vector pcDNA4/TO
Settings: CHO-TREx cells expressing human TRPA1; Fluo-3 fluorescence (FLIPR/Tetra); agonist 15 μM allyl isothiocyanate (AITC); 30 minute antagonist incubation
How it was run: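 Tetracycline-induced CHO-TREx cells stably expressing human TRPA1, loaded with 4 μM Fluo-3 AM, preincubated 30 min with compound (serial dilution typically from 10 μM, three-fold steps) in HEPES saline pH 7.4. Fluorescence change over 3 min after 15 μM AITC; IC50 from Hill fit versus no-antagonist and 10 μM ruthenium red controls.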

Sequence of Human TRPA1 (O75762 whole entry): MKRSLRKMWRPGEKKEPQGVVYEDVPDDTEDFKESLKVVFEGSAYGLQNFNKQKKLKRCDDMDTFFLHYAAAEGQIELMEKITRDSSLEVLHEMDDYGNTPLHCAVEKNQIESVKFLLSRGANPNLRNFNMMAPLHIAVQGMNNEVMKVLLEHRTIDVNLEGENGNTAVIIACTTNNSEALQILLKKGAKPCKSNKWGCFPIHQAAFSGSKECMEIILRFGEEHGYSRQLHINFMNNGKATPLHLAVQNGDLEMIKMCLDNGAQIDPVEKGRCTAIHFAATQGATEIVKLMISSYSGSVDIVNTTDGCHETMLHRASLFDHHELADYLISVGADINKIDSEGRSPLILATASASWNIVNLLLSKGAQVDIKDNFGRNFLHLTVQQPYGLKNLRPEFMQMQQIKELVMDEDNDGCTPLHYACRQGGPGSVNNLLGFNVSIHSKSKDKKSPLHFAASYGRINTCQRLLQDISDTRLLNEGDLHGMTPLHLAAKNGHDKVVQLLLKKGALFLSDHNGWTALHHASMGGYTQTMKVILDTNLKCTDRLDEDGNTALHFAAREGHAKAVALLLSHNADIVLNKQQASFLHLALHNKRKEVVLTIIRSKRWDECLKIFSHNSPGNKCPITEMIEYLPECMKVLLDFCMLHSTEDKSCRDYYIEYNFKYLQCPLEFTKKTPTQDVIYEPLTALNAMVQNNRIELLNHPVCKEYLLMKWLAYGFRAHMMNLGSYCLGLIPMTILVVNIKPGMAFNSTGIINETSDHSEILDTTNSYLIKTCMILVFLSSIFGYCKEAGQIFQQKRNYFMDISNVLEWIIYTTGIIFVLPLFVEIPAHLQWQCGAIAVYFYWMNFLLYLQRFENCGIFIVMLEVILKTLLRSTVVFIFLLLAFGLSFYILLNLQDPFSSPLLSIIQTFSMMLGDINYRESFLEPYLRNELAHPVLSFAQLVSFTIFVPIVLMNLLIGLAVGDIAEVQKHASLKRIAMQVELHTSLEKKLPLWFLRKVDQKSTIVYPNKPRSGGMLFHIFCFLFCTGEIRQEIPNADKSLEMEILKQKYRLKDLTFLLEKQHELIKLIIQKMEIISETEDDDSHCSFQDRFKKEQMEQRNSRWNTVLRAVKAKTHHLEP

Row | IC50 [nM] | Structure (SMILES)
1 | 77 | O=C(NCc1cc(-c2ccc(C(F)(F)F)cc2)ncn1)[C@@H]1CCCN1S(=O)(=O)c1ccccc1 [Example 160, 1-Benzenesulfonylpyrrolidine-2S-carboxylic acid [6-(4-trifluoromethylphenyl)-pyrimidin-4-ylmethyl]-amide]
2 | 2060 | O=C(NCc1cc(NCc2cccnc2)nc(-c2ccc(C(F)(F)F)cc2)c1)[C@@H]1CCCN1S(=O)(=O)c1ccc(Cl)s1 [Example 371, 1-[(5-Chlorothiophen-2-yl)sulfonyl]-N-({2-[(pyridin-3-ylmethyl)amino]-6-[4-(trifluoromethyl)phenyl]pyridin-4-yl}methyl)-L-prolinamide]
3 | 542 | CC(C)N1CCN(c2nc(CNC(=O)[C@@H]3CCCN3S(=O)(=O)c3ccc(F)cc3)cc(-c3ccc(C(F)(F)F)cc3)n2)CC1 [Example 9, 1-(4-Fluoro-benzenesulfonyl)-pyrrolidine-2S-carboxylic acid [2-(4-isopropyl-piperazin-1-yl)-6-(4-trifluoromethyl-phenyl)-pyrimidin-4-ylmethyl]-amide]
4 | 2730 | O=C(NCc1cc(NCc2ccncc2)nc(-c2ccc(C(F)(F)F)cc2)c1)[C@@H]1CCCN1S(=O)(=O)c1ccc(Cl)s1 [Example 364, 1-[(5-Chlorothiophen-2-yl)sulfonyl]-N-({2-[(pyridin-4-ylmethyl)amino]-6-[4-(trifluoromethyl)phenyl]pyridin-4-yl}methyl)-L-prolinamide]
5 | 1630 | O=C(NCc1cc(-c2ccc(C(F)(F)F)cc2)nc(N2CCN(Cc3ccccn3)CC2)c1)[C@@H]1CCCN1S(=O)(=O)c1ccc(F)cc1 [Example 348, 1-[(4-Fluorophenyl)sulfonyl]-N-({2-[4-(pyridin-2-ylmethyl)piperazin-1-yl]-6-[4-(trifluoromethyl)phenyl]pyridin-4-yl}methyl)-L-prolinamide]
6 | 21 | CNc1nc(CNC(=O)[C@@H]2CCCN2S(=O)(=O)c2ccc(F)cc2)cc(-c2ccc(C(F)(F)F)cc2)n1 [Example 14, 1-(4-Fluoro-benzenesulfonyl)-pyrrolidine-2S-carboxylic acid [2-methylamino-6-(4-trifluoromethyl-phenyl)-pyrimidin-4-ylmethyl]-amide]
7 | 7090 | CC(Nc1cc(CNC(=O)[C@@H]2CC(F)(F)CN2S(=O)(=O)c2ccc(F)cc2)cc(-c2ccc(C(F)(F)F)cc2)n1)c1cccnc1 (stereo partly drawn) [Example 398, 4,4-Difluoro-1-[(4-fluorophenyl)sulfonyl]-N-({2-[(1-pyridin-3-ylethyl)amino]-6-[4-(trifluoromethyl)phenyl]pyridin-4-yl}methyl)-L-prolinamide]
8 | 7260 | CC(Nc1cc(CNC(=O)[C@@H]2C=CCN2S(=O)(=O)c2ccc(F)cc2)cc(-c2ccc(C(F)(F)F)cc2)n1)c1cccnc1 (stereo partly drawn) [Example 350, (2S)-1-[(4-Fluorophenyl)sulfonyl]-N-({2-[(1-pyridin-3-ylethyl)amino]-6-[4-(trifluoromethyl)phenyl]pyridin-4-yl}methyl)-2,5-dihydro-1H-pyrrole-2-carboxamide]
9 | 6 | CC1CCCN1c1nc(CNC(=O)[C@@H]2CCCN2S(=O)(=O)c2ccc(Cl)s2)cc(-c2ccc(C(F)(F)F)cc2)n1 (stereo partly drawn) [Example 48, 1-(5-Chloro-thiophene-2-sulfonyl)-pyrrolidine-2S-carboxylic acid [2-(2-methyl-pyrrolidin-1-yl)-6-(4-trifluoromethyl-phenyl)-pyrimidin-4-ylmethyl]-amide]
10 | 49 | O=C(NCc1ccnc(-c2ccc(C(F)(F)F)cc2)c1)[C@@H]1C=CCN1S(=O)(=O)c1ccc(Cl)s1 [Example 128, 1-(5-Chlorothiophene-2-sulfonyl)-2,5-dihydro-1H-pyrrole-2S-carboxylic acid [2-(4-trifluoromethylphenyl)-pyridin-4-ylmethyl]-amide]
11 | 319 | O=C(NCc1cccc(-c2ccc(C(F)(F)F)cc2)c1)[C@@H]1[C@H]2C[C@H]2CN1S(=O)(=O)c1ccc(F)cc1 [Example 109, 3-(4-Fluorobenzenesulfonyl)-3-aza-1S,5R-bicyclo[3.1.0]hexane-2S-carboxylic acid (4′-trifluoromethylbiphenyl-3-ylmethyl)-amide]
12 | 17 | O=C(NCc1cccc(-c2cc(F)c(OC(F)F)c(F)c2)c1)[C@@H]1CCCN1S(=O)(=O)c1ccc(F)cc1 [Example 74, 1-(4-Fluorobenzenesulfonyl)-pyrrolidine-2S-carboxylic acid (4′-difluoromethoxy-3′,5′-difluorobiphenyl-3-ylmethyl)-amide]
13 | 1010 | CNc1cc(CNC(=O)[C@@H]2CCCN2S(=O)(=O)c2ccc(F)cc2)cc(-c2ccc(C(F)(F)F)cc2)n1 [Example 337, 1-[(4-Fluorophenyl)sulfonyl]-N-({2-(methylamino)-6-[4-(trifluoromethyl)phenyl]pyridin-4-yl}methyl)-L-prolinamide]
14 | 7 | C[C@@H](Nc1nc(CNC(=O)[C@@H]2CCCN2S(=O)(=O)c2ccc(Cl)s2)cc(-c2ccc(C(F)(F)F)cc2)n1)c1ccccn1 [Example 37, 1-(5-Chloro-thiophene-2-sulfonyl)-pyrrolidine-2S-carboxylic acid [2-(1-pyridin-2-yl-ethylamino)-6-(4-trifluoromethyl-phenyl)-pyrimidin-4R-ylmethyl]-amide]
15 | 1150 | O=C(NCc1cc(-c2ccc(C(F)(F)F)cc2)ncn1)[C@@H]1CCCN1S(=O)(=O)c1cc(Cl)sc1Cl [Example 173, 1-(2,5-Dichlorothiophene-3-sulfonyl)-pyrrolidine-2S-carboxylic acid [6-(4-trifluoromethylphenyl)-pyrimidin-4-ylmethyl]-amide]
16 | 1690 | CC(Nc1cc(CNC(=O)[C@@H]2CCCN2S(=O)(=O)c2ccc(F)cc2)cc(-c2ccc(C(F)(F)F)cc2)n1)c1cccnc1 (stereo partly drawn) [Example 349, 1-[(4-Fluorophenyl)sulfonyl]-N-({2-[(1-pyridin-3-ylethyl)amino]-6-[4-(trifluoromethyl)phenyl]pyridin-4-yl}methyl)-L-prolinamide]
17 | 17 | O=C(NCc1cccc(-c2ccc(C(F)(F)F)nc2)c1)[C@@H]1CCCN1S(=O)(=O)c1ccc(F)cc1 [Example 88, 1-(4-Fluorobenzenesulfonyl)-pyrrolidine-2S-carboxylic acid 3-(6-trifluoromethylpyridin-3-yl)-benzyl amide]
18 | 185 | CC(Nc1cc(CNC(=O)[C@@H]2C=CCN2S(=O)(=O)c2ccc(Cl)s2)cc(-c2ccc(C(F)(F)F)cc2)n1)c1ccccc1 (stereo partly drawn) [Example 407, (2S)-1-[(5-Chlorothiophen-2-yl)sulfonyl]-N-({2-[(1-phenylethyl)amino]-6-[4-(trifluoromethyl)phenyl]pyridin-4-yl}methyl)-2,5-dihydro-1H-pyrrole-2-carboxamide]
19 | 594 | O=C(NCc1cccc(-c2ccc3ncccc3c2)c1)[C@@H]1CCCN1S(=O)(=O)c1ccc(F)cc1 [Example 106, 1-(4-Fluoro-benzenesulfonyl)-pyrrolidine-2S-carboxylic acid 3-quinolin-6-yl-benzylamide]
20 | 40 | COc1nc(CNC(=O)[C@@H]2CCCN2S(=O)(=O)c2ccc(F)cc2)cc(-c2ccc(C(F)(F)F)cc2)n1 [Example 2, 1-(4-Fluoro-benzenesulfonyl)-pyrrolidine-2S-carboxylic acid [2-methoxy-6-(4-trifluoromethyl-phenyl)-pyrimidin-4-ylmethyl]-amide]
21 | 729 | O=C(NCc1cc(-c2ccc(C(F)(F)F)cc2)nc(N2CCN(Cc3ccncc3)CC2)c1)[C@@H]1CC(F)(F)CN1S(=O)(=O)c1ccc(Cl)s1 [Example 381, 1-[(5-Chlorothiophen-2-yl)sulfonyl]-4,4-difluoro-N-({2-[4-(pyridin-4-ylmethyl)piperazin-1-yl]-6-[4-(trifluoromethyl)phenyl]pyridin-4-yl}methyl)-L-prolinamide]
22 | 93 | O=C(NCc1cccc(-c2ccc(OCC(F)(F)F)cc2)c1)[C@@H]1CCCN1S(=O)(=O)c1ccc(F)cc1 [Example 81, 1-(4-Fluorobenzenesulfonyl)-pyrrolidine-2S-carboxylic acid [4′-(2,2,2-trifluoroethoxy)-biphenyl-3-ylmethyl]-amide]
23 | 2630 | CN(C)c1cc(CNC(=O)[C@@H]2C=CCN2S(=O)(=O)c2ccc(Cl)s2)cc(-c2ccc(C(F)(F)F)cc2)n1 [Example 334, (2S)-1-[(5-Chlorothiophen-2-yl)sulfonyl]-N-({2-(dimethylamino)-6-[4-(trifluoromethyl)phenyl]pyridin-4-yl}methyl)-2,5-dihydro-1H-pyrrole-2-carboxamide]
24 | 85 | O=C(NCc1cc(-c2ccc(C(F)(F)F)cc2)nc(NC2CCCC2)n1)[C@@H]1CCCN1S(=O)(=O)c1ccc(F)cc1 [Example 193, 1-(4-Fluoro-benzenesulfonyl)-pyrrolidine-2S-carboxylic acid [2-cyclopentylamino-6-(4-trifluoromethyl-phenyl)-pyrimidin-4-ylmethyl]-amide]
25 | 461 | CN(C)c1cc(CNC(=O)[C@@H]2CC(F)(F)CN2S(=O)(=O)c2ccc(F)cc2)cc(-c2ccc(C(F)(F)F)cc2)n1 [Example 393, N-({2-(Dimethylamino)-6-[4-(trifluoromethyl)phenyl]pyridin-4-yl}methyl)-4,4-difluoro-1-[(4-fluorophenyl)sulfonyl]-L-prolinamide]
26 | 602 | CC(NC(=O)[C@@H]1CCCN1S(=O)(=O)c1ccc(F)cc1)c1cc(-c2ccc(C(F)(F)F)cc2)ncn1 (single isomer, unassigned) [Example 181, (1S*,2S)-1-(4-Fluoro-benzenesulfonyl)-pyrrolidine-2-carboxylic acid {1-[6-(4-trifluoromethyl-phenyl)-pyrimidin-4-yl]-ethyl}-amide]
